{"source": "patent US20240366594A1", "about": "“Small Molecule Inhibitors of Formation of Neutrophil-Derived Extracellular Traps (NETosis) and Uses Thereof” (The Brigham and Women's Hospital, Inc., priority 2021, published 2024)", "key": {"mouse neutrophils": {"system": "mouse neutrophils", "assay": "Citrullinated histone H3 (CitH3) NET induction in PMA-stimulated mouse neutrophils", "format": "cell-based", "protocol": "FIGS. 1A-H. Class I/II HDACs drive NET formation • (A and B) Freshly purified human (A) or mouse (B) neutrophils were treated with the indicated HDAC inhibitors at different doses (10, 2, 0.4, 0.08 μM), or with GSK484 (10 μM), for 1 h and then stimulated with 1 μM PMA for 3 h. Cells were fixed and stained with anti-citrullinated histone H3 (CitH3) antibody. NETosis induction was measured as the level of anti-CitH3 fluorescent signal. PMA alone represents 100% of NET induction. “-”: Cells treated with the highest dose of the indicated drug but not activated with PMA. • (C and D) Human neutrophils were treated, or not, with ricolinostat or GSK484 and then stimulated with 1 μM PMA. NETosis induction was measured as area of nuclei stained with DAPI. (C) 3D reconstruction of nuclei in each treatment (grid size 7.8 μm). (D) Quantification of DAPI signal from multiple fields of view (D) (n=9 for unstimulated, not pretreated with any drug [NT] and ricolinostat, n=7 for GSK484). • (E and F) Human neutrophils were treated as in (C-D), and immunoblot analysis of the indicated proteins was performed. Relative quantification of band intensity was analyzed with ImageJ software (F). White violins plots depict the quantification of histone H3 acetylation; red violin plots depict the quantification of histone H3 citrullination. Immunoblot in E is representative of four independent experiments. Gasdermin D NT, gasdermin D N terminal; pMLKL, phospho-MLKL. • (G) Human (left) or murine (right) neutrophils were treated, or not, with ricolinostat (10 μM) and then stimulated with 1 μM PMA for 3 h. ROS production was measured by luminescence with luminol-HRP. Histograms represent the total amount of ROS produced overtime. • (H) Murine neutrophils were treated, or not, with ricolinostat (10 μM) and then stimulated with fluorescent E. coli at the indicated multiplicity of infection (MOI) for 1 h. The histogram represents the percentage of neutrophils positive for E. coli staining. Graphs show mean±SEM. Statistics were calculated using one-way ANOVA (A, B, D) and two-way ANOVA (F, G, H) (*p<0.05; **p<0.01; ****p<0.0001. n.s., not significant). Statistics refers to the comparison with neutrophils stimulated with PMA alone (A, B). […]\nFIGS. 5A-J. Class I/II HDACs drive NET formation. • A) Quantification of extracellular DNA released by neutrophils treated, or not, with 1 μM GSK484 for 1 h and then stimulated with 1 μM PMA for 4 hours. […] Extracellular DNA release was assessed in the supernatant 3 hours after PMA stimulation. […] NETosis induction was measured as level of anti-CitH3 fluorescent signal. […] NET induction was measured as in (C). […]"}, "human neutrophils": {"system": "human neutrophils", "assay": "Citrullinated histone H3 (CitH3) NET induction in PMA-stimulated human neutrophils", "format": "cell-based", "conditions": "for NETosis (anti-CitH3 signal), comparison of class I/IIb and class IIb selective inhibitors: drugs 10, 2, 0.4, 0.08 μM 1 hour, then 1 μM PMA 3 hours, FIG. 5F", "protocol": "FIGS. 1A-H. Class I/II HDACs drive NET formation • (A and B) Freshly purified human (A) or mouse (B) neutrophils were treated with the indicated HDAC inhibitors at different doses (10, 2, 0.4, 0.08 μM), or with GSK484 (10 μM), for 1 h and then stimulated with 1 μM PMA for 3 h. Cells were fixed and stained with anti-citrullinated histone H3 (CitH3) antibody. NETosis induction was measured as the level of anti-CitH3 fluorescent signal. PMA alone represents 100% of NET induction. “-”: Cells treated with the highest dose of the indicated drug but not activated with PMA. • (C and D) Human neutrophils were treated, or not, with ricolinostat or GSK484 and then stimulated with 1 μM PMA. NETosis induction was measured as area of nuclei stained with DAPI. (C) 3D reconstruction of nuclei in each treatment (grid size 7.8 μm). (D) Quantification of DAPI signal from multiple fields of view (D) (n=9 for unstimulated, not pretreated with any drug [NT] and ricolinostat, n=7 for GSK484). • (E and F) Human neutrophils were treated as in (C-D), and immunoblot analysis of the indicated proteins was performed. Relative quantification of band intensity was analyzed with ImageJ software (F). White violins plots depict the quantification of histone H3 acetylation; red violin plots depict the quantification of histone H3 citrullination. Immunoblot in E is representative of four independent experiments. Gasdermin D NT, gasdermin D N terminal; pMLKL, phospho-MLKL. • (G) Human (left) or murine (right) neutrophils were treated, or not, with ricolinostat (10 μM) and then stimulated with 1 μM PMA for 3 h. ROS production was measured by luminescence with luminol-HRP. Histograms represent the total amount of ROS produced overtime. • (H) Murine neutrophils were treated, or not, with ricolinostat (10 μM) and then stimulated with fluorescent E. coli at the indicated multiplicity of infection (MOI) for 1 h. The histogram represents the percentage of neutrophils positive for E. coli staining. Graphs show mean±SEM. Statistics were calculated using one-way ANOVA (A, B, D) and two-way ANOVA (F, G, H) (*p<0.05; **p<0.01; ****p<0.0001. n.s., not significant). Statistics refers to the comparison with neutrophils stimulated with PMA alone (A, B). Gray stars represent comparison of all experimental groups with the unstimulated control, and black stars represent comparison between drug-treated groups and cells treated with PMA only (NT) (D). See also FIGS. 5A-J.\nFIGS. 5A-J. Class I/II HDACs drive NET formation. • A) Quantification of extracellular DNA released by neutrophils treated, or not, with 1 μM GSK484 for 1 h and then stimulated with 1 μM PMA for 4 hours. Unstimulated, neutrophils not treated with drugs were used as a control. • B) Freshly purified human neutrophils were treated with the indicated HDAC inhibitors at different doses (0.08, 0.4, 2 and 10 μM) for 1 hour. Extracellular DNA release was assessed in the supernatant 3 hours after PMA stimulation. The dotted line represents the amount of DNA released from neutrophils treated with PMA alone. “-”: cells treated with the highest dose of the indicated drug but not activated with PMA. • C) Freshly purified human neutrophils were stimulated for 1 h, 3 h or 5 h. Cells were fixed and stained with an anti-CitH3 antibody. NETosis induction was measured as level of anti-CitH3 fluorescent signal. 5h-PMA treatment represents 100% NET induction. • D) Representative images of freshly isolated human neutrophils treated or not with 10 μM of the indicated drugs and stimulated with 1 μM PMA for 3 hours. Cells were fixed and then stained for CitH3 (red) and nuclei (blue). Scale bar=100 μm. • E) Murine neutrophils were treated with ricolinostat or GSK484 and then stimulated with […] for 3 hours. NET induction was measured as in (C). […]"}}, "data": [{"smiles": "O=C(CCCCCCNC(=O)c1cnc(N(c2ccccc2)c2ccccc2Cl)nc1)NO", "note": "[citarinostat]", "values": [{"measurement": "NET formation (level of CitH3)", "setting": "mouse neutrophils; murine neutrophils, PMA, FIG. 5J", "value": "inhibited NET formation to a comparable extent"}, {"measurement": "NET formation (level of CitH3), two independent donors", "setting": "human neutrophils; 10, 2, 0.4, 0.08 μM for 1 h, then 1 μM PMA, FIGS. 5H, 5I", "value": "inhibited NET formation to a comparable extent"}]}, {"smiles": "Nc1ccccc1NC(=O)c1ccc(CNC(=O)OCc2cccnc2)cc1", "note": "[entinostat]", "values": [{"measurement": "release of CitH3 (NET induction)", "setting": "mouse neutrophils; drugs 10, 2, 0.4, 0.08 μM for 1 h, then 1 μM PMA 3 h, FIG. 1B", "value": "no effect"}, {"measurement": "NET induction, measured as CitH3 staining", "setting": "human neutrophils; drugs 10, 2, 0.4, 0.08 μM or GSK484 10 μM for 1 h, then 1 μM PMA 3 h, FIGS. 1A and 5D", "value": "prevented NET release in a dose-dependent manner with an efficacy comparable with GSK484"}]}, {"smiles": "CCCCN(Cc1ccc(C(=O)NO)cc1)C(=O)Nc1ccccc1", "note": "[nexturastat]", "values": [{"measurement": "NETosis (anti-CitH3 signal), comparison of class I/IIb and class IIb selective inhibitors", "setting": "human neutrophils", "value": "selective class IIb targeting did not"}]}, {"smiles": "O=C(CCCCCCC(=O)Nc1ccc([C@H]2O[C@@H](CSc3nc(-c4ccccc4)c(-c4ccccc4)o3)C[C@@H](c3ccc(CO)cc3)O2)cc1)NO", "note": "[tubacin]", "values": [{"measurement": "NETosis (anti-CitH3 signal), comparison of class I/IIb and class IIb selective inhibitors", "setting": "human neutrophils", "value": "class I/IIb HDAC inhibition prevented NETosis"}]}, {"smiles": "CN1CCc2c(c3ccccc3n2Cc2ccc(C(=O)NO)cc2)C1", "note": "[tubastatin A]", "values": [{"measurement": "NETosis (anti-CitH3 signal), comparison of class I/IIb and class IIb selective inhibitors", "setting": "human neutrophils", "value": "selective class IIb targeting did not"}]}]}
